Measurements as given in patent US11434227B2, “Broad spectrum antibacterial activity of novel bisbenzimidazoles targeting topoisomerase IA and the synergistic composition of bisbenzimidazole with efflux pump inhibitors against pathogenic bacteria” (Jawaharlal Nehru University (JNU), priority 2016, dated 2022).
Converted amounts (≈) assume the structure as drawn.

Legend:
[1] = test system: E. coli 451^R; test: Susceptibility (MIC, PAE, MBC), broth microdilution
Description: (§1) MICs were determined by the broth microdilution method according to CLSI methods (Clinical and Laboratory Standards Institute, 2005). Inoculants were incubated at 37° C. on cation adjusted Mueller Hinton (MH) Broth for 18 to 24 h. Compound were dissolved in media to 10 doubling dilutions from 128 to 0.125 μg/mL. All the bacterial strains were grown in 96 well plate with low evaporation lid (Falcon, Becton Dickinson) in presence of derivatives of benzimidazoles at 0.125, 0.25, 0.5, 1, 2, 4, 8, 16, 32, 64, 128, 256 μg/mL concentrations. […] Plates were read by Tecan Micro-plate Reader at 600 nm.

[2] = test system: E. coli 132^R; test: as above
Description: as §1

[3] = test system: E. coli 555^R; test: as above
Description: as §1

[4] = target: E. coli Topoisomerase IA (EcTopoIA) (Escherichia coli, UniProt P06612); conditions: reference 5; cited from earlier work
[5] = test system: E. coli 401^R; test: Susceptibility (MIC, PAE, MBC), broth microdilution
Description: as §1

[6] = test system: E. coli 360^R; test: as above
Description: as §1

[7] = test system: E. coli 151^R; test: as above
Description: as §1

[8] = target: E. coli Topoisomerase IA (Escherichia coli, UniProt P06612); test: Topoisomerase IA cleavage and religation assay; format: biochemical; conditions: 0.12-2 μM DMA, 5′-32P labeled ssDNA
Description: Compounds at different concentrations were added to DNA cleavage reaction mixtures (20 μl) containing 50 mM TrisHCl, pH 7.5, 2 mM MgCl2 0.2 mM DTT, 0.5 mM EDTA, 30 μg/ml BSA, 25 μg/ml of pHOT1 having specific site for DNA, 40 units of E. coli Topoisomerase IA and ligands was incubated at 37° C. for 30 min. The reactions was then terminated by adding 1% SDS and 150 μg/m Proteinase K, and incubated further for 1 h at 37° C. The DNA samples was electrophoresed in 1% agarose gel in 0.5×TBE. Ethidium bromide at a finial concentration of 0.5 μg/ml was included in the gel to resolve slowly migrating nicked product (cleavable complex) from the supercoiled DNA molecules.

[9] = test system: Escherichia coli (ATCC 25922); test: Susceptibility (MIC, PAE, MBC), broth microdilution
Description: as §1

[10] = test system: E. coli DH5α; test: as above
Description: as §1

[11] = test system: E. coli 72^R; test: as above; conditions: Escherichia coli
Description: as §1

[12] = test system: E. coli 81^R; test: as above
[13] = test system: E. coli 118^R; test: as above
[14] = test system: E. coli 85^R; test: as above
Description: as §1

[15] = test system: E. coli 59^R; test: as above
Description: as §1

Chain of E. coli Topoisomerase IA (EcTopoIA) (P06612 whole entry): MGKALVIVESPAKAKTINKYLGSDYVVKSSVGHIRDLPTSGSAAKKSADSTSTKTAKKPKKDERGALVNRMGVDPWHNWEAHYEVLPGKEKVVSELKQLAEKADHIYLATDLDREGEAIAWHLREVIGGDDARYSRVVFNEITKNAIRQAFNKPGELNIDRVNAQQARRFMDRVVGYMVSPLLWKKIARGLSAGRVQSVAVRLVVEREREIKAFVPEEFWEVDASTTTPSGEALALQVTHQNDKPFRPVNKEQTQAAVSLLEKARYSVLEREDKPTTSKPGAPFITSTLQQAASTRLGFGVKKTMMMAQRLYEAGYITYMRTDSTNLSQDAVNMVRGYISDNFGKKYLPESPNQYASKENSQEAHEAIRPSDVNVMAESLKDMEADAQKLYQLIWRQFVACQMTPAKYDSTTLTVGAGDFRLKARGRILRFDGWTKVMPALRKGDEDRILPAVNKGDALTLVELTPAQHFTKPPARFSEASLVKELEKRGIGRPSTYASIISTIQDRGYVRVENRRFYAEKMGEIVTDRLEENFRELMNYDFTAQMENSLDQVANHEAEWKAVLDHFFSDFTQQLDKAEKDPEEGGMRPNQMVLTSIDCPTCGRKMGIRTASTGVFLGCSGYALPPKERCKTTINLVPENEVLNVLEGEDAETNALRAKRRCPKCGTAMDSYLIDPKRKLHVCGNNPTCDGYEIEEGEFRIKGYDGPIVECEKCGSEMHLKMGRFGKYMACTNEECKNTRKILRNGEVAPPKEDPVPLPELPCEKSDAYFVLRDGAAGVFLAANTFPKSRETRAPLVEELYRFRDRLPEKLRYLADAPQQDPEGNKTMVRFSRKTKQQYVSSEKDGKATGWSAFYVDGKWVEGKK
Chain of E. coli Topoisomerase IA (P06612 whole entry): as above

SMILES: COc1ccc(-c2nc3cc(-c4nc5ccc(N6CCN(C)CC6)cc5[nH]4)ccc3[nH]2)cc1OC [DMA, 3,4-Dimethoxyphenyl bisbenzimidazole, reference compound]
- PAE ([1]; E. coli 451^R): 22 h
- MBC ([1]; Escherichia coli): 16 µM (≈ 7.5 µg/mL)
- MIC ([1]; Escherichia coli): 3.74 µg/mL (≈ 7.98 µM)
- PAE ([2]; E. coli 132^R): 24 h
- MBC ([2]; Escherichia coli): 32 µM (≈ 15 µg/mL)
- MIC ([2]; Escherichia coli): 7.49 µg/mL (≈ 16 µM)
- PAE ([3]; E. coli 555^R): 24 h
- MBC ([3]; Escherichia coli): 64 µM (≈ 30 µg/mL)
- MIC ([3]; Escherichia coli): 15 µg/mL (≈ 32 µM)
- target specificity [4]: specific Escherichia coli Topoisomerase IA poison inhibitor over Gyrase, Human Topoisomerase I and Human Topoisomerase II
- PAE ([5]; E. coli 401^R): 16 h
- MBC ([5]; Escherichia coli): 64 µM (≈ 30 µg/mL)
- MIC ([5]; Escherichia coli): 15 µg/mL (≈ 32 µM)
- PAE ([6]; E. coli 360^R): 24 h
- MBC ([6]; Escherichia coli): 16 µM (≈ 7.5 µg/mL)
- MIC ([6]; Escherichia coli): 3.74 µg/mL (≈ 7.98 µM)
- PAE ([7]; E. coli 151^R): 21.6 h
- MBC ([7]; Escherichia coli): 32 µM (≈ 15 µg/mL)
- MIC ([7]; Escherichia coli): 7.49 µg/mL (≈ 16 µM)
- DNA cleavage product formed by EcTopo1A [8]: increased the DNA cleavage product formed by EcTopo1A
- PAE ([9]; ATCC 25922): 22.3 h
- MBC ([9]; Escherichia coli, ATCC25922): 64 µM (≈ 30 µg/mL)
- MIC ([9]; Escherichia coli, ATCC25922): 15 µg/mL (≈ 32 µM)
- PAE ([10]; E. coli DH5α): 20.8 h
- MBC ([10]; Escherichia coli): 16 µM (≈ 7.5 µg/mL)
- MIC ([10]; Escherichia coli): 3.74 µg/mL (≈ 7.98 µM)
- MBC [11]: 16 µM (≈ 7.5 µg/mL)
- MIC [11]: 3.74 µg/mL (≈ 7.98 µM)
- PAE ([12]; E. coli 81^R): 23.6 h
- MBC ([12]; Escherichia coli): 32 µM (≈ 15 µg/mL)
- MIC ([12]; Escherichia coli): 7.49 µg/mL (≈ 16 µM)
- PAE ([13]; E. coli 118^R): 24 h
- MBC ([13]; Escherichia coli): 16 µM (≈ 7.5 µg/mL)
- MIC ([13]; Escherichia coli): 3.74 µg/mL (≈ 7.98 µM)
- PAE ([14]; E. coli 85^R): 24 h
- MBC ([14]; Escherichia coli): 16 µM (≈ 7.5 µg/mL)
- MIC ([14]; Escherichia coli): 3.74 µg/mL (≈ 7.98 µM)
- PAE ([15]; E. coli 59^R): 1.6 h
- MBC ([15]; Escherichia coli): 32 µM (≈ 15 µg/mL)
- MIC ([15]; Escherichia coli): 7.49 µg/mL (≈ 16 µM)
